The assay concerns Swiss mice, Sarcoma 180 sc, mean tumor weight T/C. Kind of assay: NCI In Vivo Anticancer Drug Screen. Data for tumor model Sarcoma 180 (subcutaneous) in Swiss mice. The settings on record: endpoint: mean tumor weight, higher = larger tumour. In a few lines:
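Readout is the ratio of treated-group measurement to vehicle-control measurement (T/C), based on survival or tumor size in mice carrying transplanted tumors.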

Where [1] appears, read: dose: 200.0 mg/kg/injection, schedule: Q01DX007 (ip), vehicle: carboxymethylcellulose (CMC).
The mark [2] stands for this setting: dose: 225.0 mg/kg/injection, schedule: Q01DX007 (ip), vehicle: saline.
Setting [3] is: dose: 200.0 mg/kg/injection, schedule: Q01DX007 (ip), vehicle: saline.
Where [4] appears, read: dose: 400.0 mg/kg/injection, schedule: Q01DX007 (ip), vehicle: saline.

These results are taken from PubChem BioAssay AID342 (DTP/NCI, 2004).

“And” between values parts separate entries of the source, which are not always exact repeats. Equal entries are not always repeated. Square brackets hold non-standard residues; d marks the D form. Peptide text beside a SMILES is read from it. ξ: configuration not given here. Ac5c = NC1(C(=O)O)CCCC1; ξS = NC(CO)C(=O)O

What is called T/C is the result in the treated group divided by that in the control group, in per cent. Consider `CC(=O)Nc1cc2c(cc1Br)-c1ccc(F)cc1C2`, for which the T/C runs as follows: (dose: 222.0 mg/kg/injection, schedule: Q01DX007 (ip), vehicle: other) 56 % of control; (dose: 333.0 mg/kg/injection, schedule: Q01DX007 (ip), vehicle: other) 44 % of control; (dose: 500.0 mg/kg/injection, schedule: Q01DX007 (ip), vehicle: other) 22 % of control.

On to `CN(C)c1ccc(/C=C\c2ccnc3ccccc23)cc1`, for which the T/C is 123 % of control (dose: 12.5 mg/kg/injection, schedule: Q01DX007 (ip), vehicle: water); 118 % of control (dose: 16.0 mg/kg/injection, schedule: Q01DX007 (ip), vehicle: methylcellulose (MC)); 80 % of control (dose: 24.0 mg/kg/injection, schedule: Q01DX007 (ip), vehicle: methylcellulose (MC)); 114 % of control (dose: 25.0 mg/kg/injection, schedule: Q01DX007 (ip), vehicle: water); 66 % of control (dose: 36.0 mg/kg/injection, schedule: Q01DX007 (ip), vehicle: methylcellulose (MC)); 80 % of control (dose: 50.0 mg/kg/injection, schedule: Q01DX007 (ip), vehicle: water).

Regarding `CCCCOC(=O)C1(N)CCCC1`, the T/C by setting is: (dose: 60.0 mg/kg/injection, schedule: Q01DX007 (ip), vehicle: carboxymethylcellulose (CMC)) 72 % of control; (dose: 90.0 mg/kg/injection, schedule: Q01DX007 (ip), vehicle: carboxymethylcellulose (CMC)) 72 % of control; (dose: 135.0 mg/kg/injection, schedule: Q01DX007 (ip), vehicle: carboxymethylcellulose (CMC)) 33 % of control; (dose: 148.0 mg/kg/injection, schedule: Q01DX007 (ip), vehicle: saline) 54 % of control; under setting [1], 12 % of control; (dose: 202.0 mg/kg/injection, schedule: Q01DX007 (ip), vehicle: carboxymethylcellulose (CMC)) 33 % of control. Further, the T/C under setting [2] is 33 % of control and the T/C (dose: 336.0 mg/kg/injection, schedule: Q01DX007 (ip), vehicle: saline) is 11 % of control.

With `COS(C)(=O)=O`, the T/C is 89 % of control (dose: 25.0 mg/kg/injection, schedule: Q01DX007 (ip), vehicle: carboxymethylcellulose (CMC)) and 66 % of control (dose: 50.0 mg/kg/injection, schedule: Q01DX007 (ip), vehicle: carboxymethylcellulose (CMC)).

Consider `C[C@]1(O)CC[C@H]2[C@@H]3CCc4cc(O)ccc4[C@H]3CC[C@@]21C`, for which the T/C was 115 % of control (dose: 0.5 mg/kg/injection, schedule: Q#A X014 (sc), vehicle: steriod suspending solution); 103 % of control (dose: 5.0 mg/kg/injection, schedule: Q#A X014 (sc), vehicle: steriod suspending solution); 74 % of control (dose: 50.0 mg/kg/injection, schedule: Q#A X014 (sc), vehicle: steriod suspending solution).

In the case of `CO[C@H]1CC[C@@]2(C)C(=CC[C@@H]3[C@@H]2CC[C@]2(C)C(=O)C(=O)C[C@@H]32)C1`, the T/C reads like this: (dose: 22.0 mg/kg/injection, schedule: Q01DX007 (sc), vehicle: steriod suspending solution) 154 % of control; (dose: 33.0 mg/kg/injection, schedule: Q01DX007 (sc), vehicle: steriod suspending solution) 74 % of control.

As to `Cc1ccccn1`, the T/C by setting is: under setting [3], 87 % of control; under setting [4], 151 % of control.

Consider `NC(CO)C(=O)NC1(C(=O)O)CCCC1` (stereo unspecified) (H-[ξS]-[Ac5c]-OH), for which the T/C is 84 % of control (dose: 110.0 mg/kg/injection, schedule: Q01DX007 (ip), vehicle: carboxymethylcellulose (CMC)); 49 % of control (dose: 167.0 mg/kg/injection, schedule: Q01DX007 (ip), vehicle: carboxymethylcellulose (CMC)); 21 % of control (dose: 250.0 mg/kg/injection, schedule: Q01DX007 (ip), vehicle: carboxymethylcellulose (CMC)).

For the molecule `CC1CN1P(=O)(Oc1ccccc1)N1CC1C` (stereo unspecified), the T/C is 60 % of control and 67 % of control and 84 % of control (dose: 27.5 mg/kg/injection, schedule: Q#A X014 (ip), vehicle: saline); 13 % of control and 20 % of control (dose: 62.5 mg/kg/injection, schedule: Q#A X014 (ip), vehicle: saline).

For `CCCCN(C)N=Nc1ccc(OCC(=O)OCC)cc1`, the T/C was 111 % of control (dose: 7.0 mg/kg/injection, schedule: Q01DX007 (ip), vehicle: saline); 93 % of control (dose: 10.0 mg/kg/injection, schedule: Q01DX007 (ip), vehicle: saline); 111 % of control (dose: 15.0 mg/kg/injection, schedule: Q01DX007 (ip), vehicle: saline); 95 % of control (dose: 23.0 mg/kg/injection, schedule: Q01DX007 (ip), vehicle: saline).

Consider `O=c1[nH]c(=O)c2n[nH]nc2[nH]1`, for which the T/C reads like this: (dose: 0.25 mg/kg/injection, schedule: Q#A X014 (ip), vehicle: carboxymethylcellulose (CMC)) 122 % of control; (dose: 0.5 mg/kg/injection, schedule: Q#A X014 (ip), vehicle: carboxymethylcellulose (CMC)) 102 % of control; (dose: 2.0 mg/kg/injection, schedule: Q#A X014 (ip), vehicle: carboxymethylcellulose (CMC)) 114 % of control; (dose: 86.28 mg/kg/injection, schedule: Q01DX007 (ip), vehicle: carboxymethylcellulose (CMC)) 68 % of control; (dose: 172.57 mg/kg/injection, schedule: Q01DX007 (ip), vehicle: carboxymethylcellulose (CMC)) 49 % of control; (dose: 345.15 mg/kg/injection, schedule: Q01DX007 (ip), vehicle: carboxymethylcellulose (CMC)) 102 % of control. Further, the T/C (dose: 690.3 mg/kg/injection, schedule: Q01DX007 (ip), vehicle: carboxymethylcellulose (CMC)) is 51 % of control.

In the case of `NC(=O)c1n[se]nc1N`, the T/C was 65 % of control (dose: 1.0 mg/kg/injection, schedule: Q01DX007 (ip), vehicle: carboxymethylcellulose (CMC)) and 99 % of control (dose: 2.0 mg/kg/injection, schedule: Q01DX007 (ip), vehicle: carboxymethylcellulose (CMC)).

Take `CC(=O)C(CCC(=O)O)(CCC(=O)O)c1ccccc1`: the T/C is 83 % of control (dose: 15.0 mg/kg/injection, schedule: Q#A X014 (ip), vehicle: other); 106 % of control (dose: 30.0 mg/kg/injection, schedule: Q#A X014 (ip), vehicle: other); 98 % of control (dose: 60.0 mg/kg/injection, schedule: Q#A X014 (ip), vehicle: other); 112 % of control (dose: 120.0 mg/kg/injection, schedule: Q#A X014 (ip), vehicle: other).

For `CNC=O`, the T/C (dose: 19.87 mg/kg/injection, schedule: Q#A X014 (ip), vehicle: carboxymethylcellulose (CMC)) was 107 % of control; the T/C (dose: 39.75 mg/kg/injection, schedule: Q#A X014 (ip), vehicle: carboxymethylcellulose (CMC)) was 67 % of control; the T/C (dose: 79.5 mg/kg/injection, schedule: Q#A X014 (ip), vehicle: carboxymethylcellulose (CMC)) is 23 % of control; the T/C (dose: 100.0 mg/kg/injection, schedule: Q#A X014 (ip), vehicle: saline) was 20 % of control; the T/C (dose: 120.0 mg/kg/injection, schedule: Q01DX007 (ip), vehicle: carboxymethylcellulose (CMC)) was 19 % of control; the T/C (dose: 125.0 mg/kg/injection, schedule: Q01DX007 (ip), vehicle: saline) was 8 % of control and 12 % of control. Also, the T/C by setting is: (dose: 150.0 mg/kg/injection, schedule: Q01DX007 (ip), vehicle: carboxymethylcellulose (CMC)) 16 % of control; (dose: 150.0 mg/kg/injection, schedule: Q01DX007 (ip), vehicle: saline) 4 % of control and 7 % of control; (dose: 159.0 mg/kg/injection, schedule: Q#A X014 (ip), vehicle: carboxymethylcellulose (CMC)) 8 % of control; (dose: 175.0 mg/kg/injection, schedule: Q01DX007 (ip), vehicle: saline) 1 % of control and 5 % of control; under setting [1], 9 % of control; under setting [3], 2 % of control and 3 % of control and 26 % of control. The T/C was 1 % of control and 3 % of control under setting [2]; 1 % of control and 2 % of control (dose: 250.0 mg/kg/injection, schedule: Q01DX007 (ip), vehicle: saline); 1 % of control (dose: 275.0 mg/kg/injection, schedule: Q01DX007 (ip), vehicle: saline); 1 % of control (dose: 325.0 mg/kg/injection, schedule: Q01DX007 (ip), vehicle: saline); 24 % of control under setting [4].

For the molecule `O=C(Nc1ccc([N+](=O)[O-])cc1)Nc1ccc([N+](=O)[O-])cc1` (tested in a mixture with another compound), the T/C by setting is: (dose: 37.0 mg/kg/injection, schedule: Q#A X014 (ip), vehicle: methylcellulose (MC)) 59 % of control; (dose: 55.5 mg/kg/injection, schedule: Q#A X014 (ip), vehicle: methylcellulose (MC)) 60 % of control; (dose: 187.5 mg/kg/injection, schedule: Q#A X014 (ip), vehicle: methylcellulose (MC)) 53 % of control and 50 % of control and 52 % of control; (dose: 250.0 mg/kg/injection, schedule: Q#A X014 (ip), vehicle: methylcellulose (MC)) 44 % of control.

As to `O=C(CCBr)N1CCCN(C(=O)CCBr)CC1`, the T/C is, setting by setting: (dose: 147.0 mg/kg/injection, schedule: Q01DX007 (ip), vehicle: carboxymethylcellulose (CMC)) 49 % of control; (dose: 223.0 mg/kg/injection, schedule: Q01DX007 (ip), vehicle: carboxymethylcellulose (CMC)) 46 % of control.
